# “Also recorded” adds a separate entry of the source.
# Legend:
# Format in all cases: cell-based
# PD-L2 = assay: Flow cytometry of PEM with anti-PD-L2; details: JQ1 & LPS versus LPS alone
# Method: (§1) PEM were treated with different concentrations of JQ1 in presence and absence of LPS. Flow cytometry was performed on PEM treated with different concentrations of JQ1 in presence and absence of LPS using anti-PD-Ll and anti-PD-L2 as well as isotype as a control.
# Naïve CD4 T-cells = assay: JQ1-treated PEM co-cultured with naive CD4 T-cells and OVA peptide, cytokine ELISA; details: PEM treated 24 hours, co-culture 48 hours with OVA peptide
# Method: (§2) PEM were treated with different concentrations of JQ1 in presence and absence of LPS. After 24 hours, PEM was washed twice with warm RPMI. Naïve CD4 T-cells or tolerant T-cells were added to the plated macrophages with or without OVA peptide and co-cultured for 48 hours. IL-2 and IFN-γ production were determined by ELISA. Without OVA peptide, there was no production of IL-2 or IFN-γ.
# PD-L1 [1] = assay: PD-L1 mRNA expression by real time PCR in PEM; details: LPS+JQ1 combination
# tolerant CD4+ T-cells = assay: JQ1-treated PEM co-cultured with tolerant T-cells and OVA peptide, IFN-γ ELISA; details: PEM treated with JQ1+LPS 24 hours, co-culture 48 hours with OVA peptide, tolerant CD4+ T-cells from lymphoma bearing hosts
# Method: as §2
# PD-L1 [2] = assay: Flow cytometry of PEM with anti-PD-L1; details: JQ1 & LPS versus LPS alone, treated versus untreated APCs
# Method: as §1
# IL-10 [3] = assay: IL-10 production by ELISA in PEM treated with JQ1 with and without LPS; details: PEM (PEM or bone marrow derived DCs), 24 hours, supernatant ELISA
# Method: (§3) Macrophages (PEM) were treated with different concentrations of JQ1 in presence and absence of LPS (stimulant for macrophages). After 24 hours, supernatant was collected and IL -10 & IL-6 production was determined by ELISA.
# IL-6 [4] = assay: IL-6 mRNA expression by real time PCR in PEM; details: PEM or DCs, increasing JQ1, LPS stimulation
# PEM = PEM cell viability after 24 hours JQ1
# Method: In order to determine the best working concentration of JQ1 in PEM, plated PEM (96-well plate) were treated with increased concentration of JQ1 for 24 hours then cell viability was determined. A threshold of 100 to 800 nanomolar was determined to be acceptable.
# IL-6 [5] = assay: IL-6 production by ELISA in PEM treated with JQ1 with and without LPS; details: PEM (PEM or bone marrow derived DCs), 24 hours, supernatant ELISA
# Method: as §3
# IL-10 [6] = assay: IL-10 mRNA expression by real time PCR in PEM; details: PEM or DCs, increasing JQ1, LPS stimulation
compound,measurement,setting,value
"Cc1sc2c(c1C)C(c1ccc(Cl)cc1)=N[C@@H](CC(=O)OC(C)(C)C)c1nnc(C)n1-2 [JQ1, (S)-tert-butyl 2-(4-(4-chlorophenyl)-2,3,9-trimethyl-6H-thieno[3,2-f][1,2,4]triazolo[4,3-a][1,4]diazepin-6-yl)acetate]",PD-L2 expression (flow cytometry),PD-L2,relatively decreased expression
same,IFN-gamma production by CD4 T-cell,Naïve CD4 T-cells,increase in dose dependent production
same,IL-2 production by CD4 T-cell,Naïve CD4 T-cells,increase in dose dependent production
same,IFN-gamma production by CD4 T-cell,Naïve CD4 T-cells; listed as JQ 1,increased production
same,IL-2 production by CD4 T-cell,Naïve CD4 T-cells; listed as JQ 1,increased production
same,PDL1 mRNA expression,PD-L1 [1],decreased expression
same,IFN-gamma production by tolerant T-cells / responsiveness of tolerant T-cells,tolerant CD4+ T-cells,enhanced IFN-gamma production; also recorded: restoration of tolerant T-cell function
same,IFN-gamma production by tolerant T-cells / responsiveness of tolerant T-cells,tolerant CD4+ T-cells; listed as JQ 1,able to restore the responsiveness; also recorded: capable of restoring the responsiveness
same,PD-L1 expression (flow cytometry),PD-L1 [2],relatively decreased expression
same,PD-L1 expression (flow cytometry),PD-L1 [2]; listed as JQ 1,decreased expression; also recorded: lower expression
same,IL-10 production,IL-10 [3],decreased production
same,IL-10 production,IL-10 [3]; listed as JQ 1,decreased expression and protein production
same,IL-6 expression (mRNA),IL-6 [4],decreased expression
same,acceptable working concentration threshold (cell viability),"PEM; PEM, 96-well plate, 24 hours",100 to 800 nM
same,viability of treated APCs,PEM; at the concentration used (FIG. 1),did not affect the viability
same,IL-6 production,IL-6 [5],decreased production
same,IL-6 production,IL-6 [5]; listed as JQ 1,decreased expression and protein production
same,IL-10 expression (mRNA),IL-10 [6],decreased expression

# — patent US10813939B2, “Bromodomain inhibitor as adjuvant in cancer immunotherapy” (H. LEE MOFFITT CANCER CENTER AND RESEARCH INSTITUTE, INC., priority 2014, dated 2020)
